# Data from US5104852A, “Method for the inhibition of the proliferation of cancer cells in a tumor sensitive to treatment with a selenodithiol by the injection into the tumor of a selenodithiol such as selenodiglutathione” (The Ohio State University, priority 1991, dated 1992).
# Tests used:
# rat mammary tumor = assay: Direct injection into rat mammary tumor (FIG. 12, FIG. 13); assay type: in vivo
# Protocol: The tumor was induced in each rat by the administration of 7,12-dimethylbenz(a)anthracene and allowed to proliferate to the predetermined sized range of 1.5 to 2.5 centimeters in diameter. The selenodiglutathione was injected at a level of 700 micrograms directly into the central region of the tumor mass fifteen times over the course of thirty days.
# FIG. 13 illustrates a table comparing the volume changes of three rat mammary cancer tumors injected over time. The curve marked "C" represents the volume increase in a control tumor injected with eluate from the column but with no selenodithiol. Curves "L" and "H" represent cancer tumors injected according to different treatment schedules of selenodiglutathione. The "L" tumor received a dose of selenodiglutathione of 1.46cc of 7×10^-3 M every forty eight hours for twenty eight days while the "H" tumor received a dose of selenodiglutathione of 2.8cc of 7×10^-3 M every ninety six hours for twenty eight days. […] The control tumor, C, continued to increase in volume dramatically.
# [1] = test system: DMBA (7,12-dimethylbenz(a)anthracene) induced tumors; assay: DMBA-induced tumors in rats, injection of agents (Table 1, FIG. 3); assay type: in vivo
# Description: The Table contrasts the results obtained by the desired dosage with the results obtained from four other groups of ten rats; the rats in each group being inoculated with cancer immunotoxins in differing dosages of both GSSeSG, retinol (HPR) and mixtures of each, as well as a control sample of […] which were not administered with cancer treating agents. All one hundred rats were inoculated with DMBA (7,12-dimethylbenz(a)anthracene) so as to induce cancer cell formation, which was then allowed to form tumors over a period of two months prior to testing. […] Thus, Table 1 clearly illustrates both the effectiveness of GSSeSG when utilized in the desired range of proportions and also the fact that even relatively small variations in excess of the crisis zone in its administration will cause severe damage to the host subject, while the proper range of dosages is substantially non-toxic to the treated host.
# [2] = molecular target: T1, elongation factor 2 (EF-2) (Rattus norvegicus, UniProt P05197); conditions: cell-free system derived from rats; cited from earlier work
# T1 construct: in a cell-free system derived solely from rats
# [3] = test system: Malignant Mouse Lymphoid Cells; conditions: intraperitoneal injections, mice previously inoculated with tumor cells, versus untreated control; cited from earlier work
# [4] = test system: secondary superficial tumors; assay: Injection at site distant from the tumor; assay type: in vivo, rats; conditions: effective dosages injected at site distant from the tumor
# Protocol: It has further been discovered that rats which are injected with effective dosages of GSSeSG at site distant from the tumor will still kill the cancer tumors.
# human tumor cell lines = assay: Cell culture assay (microculture tetrazolium/MTT assay); assay type: cell-based
# Description: The purpose of the cell culture assay is a method for measuring at what concentration of the cancer treating agent will inhibit neoplastic cell division or protein synthesis, and thus cause the death of the neoplastic cells. The particular assay technique is a modification of that described by Mosmann, Jour. of Immunol. Meth., 65, 1983, pp. 55-63. The cell lines used for the in vitro assay are: […]
# The plating density of each cell type used in the assay is set forth below: […]
# The procedure followed involved adding for each cell type 200 microliters of the cell suspension at the concentration determined above, to each well of a 96-well plate. The plates were allowed to incubate for twenty four hours at 37° C. and humidified in the presence of a 5% CO2 atmosphere, whereupon 20 microliters of GSSeSG concentrations ranging from 10^-8 M to 10^-4 M were added to the wells located on the plate. A variety of concentrations of cycloheximide and adriamycin were utilized as a control. The resulting plates were incubated for six days at 37° C., humidified in a 5% CO2 atmosphere and on the final day of the assay, 20 μl were added to each well of [MTT 3-(4,5-dimethylthiazol-2-yl)-2,5-diphenyl tetrazolium bromide], obtained from Sigma Cat #M2128. The MTT is prepared by combining 5mg/ml of a phosphate buffered saline (PBS) solution. […] Upon completion, the optical density of each well was read on an elisa plate reader set at 570nm (test sample) and 630nm (for reference).
# FIGS. 4 through 11 provide comparisons of the effects at increasing concentrations of adriamycin and GSSeSG as measured by variations in optical density of various cell solutions. […] Variations in optical density, measured by a spectrophotometer, are indicative of the level of cellular activity. […]
# [5] = test system: peripheral blood lymphocytes; assay: Sister Chromatid Exchange (mutagenicity); assay type: cell-based, human; conditions: FIG. 2, compared with selenite and selenomethionine
# Description: FIG. 2 describes the effect that GSSeSG has with respect to the mutagenicity of three selenium containing, cancer treating agents as a function of their respective concentrations. More particularly, the preferred selenodithiol, GSSeSG is contrasted with two other selenium containing compounds, selenite and selenomethionine in the treatment of peripheral blood lymphocytes, i.e., normal human cells taken from different sections of the body. […] As one in the art is aware, in the technique known as Sister Chromatid Exchange (SCE) the particular nucleotide components which comprise the DNA genetic code cross over to form cell mutations which lead to the birth and growth of rapidly dividing neoplastic cells.
# [6] = test system: DMBA-induced mammary tumorigenesis; conditions: cited from earlier work
# [7] = test system: DU-145 Human Prostate Carcinoma Cells; conditions: in vitro; cited from earlier work
# EF-2 = EF-2 (Rattus norvegicus, UniProt P05197); conditions: in vitro amino acid incorporation; cited from earlier work
# [8] = test system: Human Breast Cancer Cells; conditions: parenteral administration, mice; cited from earlier work
# [9] = 1 μg per gram of rat body weight
# [10] = retinol alone or GSSeSG mixed with retinol, groups of ten rats
smiles,measurement,setting,value
"N[C@@H](CCC(=O)N[C@@H](CS[Se]SC[C@H](NC(=O)CC[C@H](N)C(=O)O)C(=O)NCC(=O)O)C(=O)NCC(=O)O)C(=O)O [GSSeSG, selenodiglutathione]","tumor volume change, ""L"" tumor","rat mammary tumor; 1.46cc of 7×10^-3 M every forty eight hours for twenty eight days, FIG. 13",stopped growing
same,"tumor volume change, ""H"" tumor","rat mammary tumor; 2.8cc of 7×10^-3 M every ninety six hours for twenty eight days, FIG. 13",decreased in volume to a level significantly below the initial volume
same,detrimental effect to the animal,"rat mammary tumor; 700 micrograms into central region of tumor, fifteen times over thirty days",without any detrimental effect
same,tumor size,"rat mammary tumor; 700 micrograms into central region of tumor, fifteen times over thirty days, FIG. 12",decreased dramatically
same,effect on cancer cells,[1]; [9],substantial elimination of the cancer cells
same,harm to the rats as indicated by bodyweight,[1]; [9],substantially no harm to the rats
same,mortality of rats,"[1]; 2 μg of GSSeSG per gram of bodyweight, ten rats, seventy nine days",all but one of these specimens are dead
same,effectiveness in inhibiting protein synthesis versus sodium selenite or oxidized glutathione,[2],substantially more effective
same,life span of the animals,[3],increased the life span
same,tumor growth,[3],inhibited the tumor growth
same,effect on tumors distant from the point of injection,[4],disappearance of secondary superficial tumors
same,concentration up to which neoplastic cell division increases,human tumor cell lines; FIG. 1,up to 10^-6 M
same,concentration at which neoplastic cells survive (purple solution obtained),"human tumor cell lines; MTT, six days incubation",less than 10^-6 M
same,concentration inhibiting neoplastic cell division or protein synthesis (purple solution not obtained),"human tumor cell lines; MTT, six days incubation",at least 10^-5 M
same,number of Sister Chromatid Exchanges (inducible mutation),[5],low number
"CC1=C(/C=C/C(C)=C/C=C/C(C)=C/CO)C(C)(C)CCC1 [retinol, reference compound]",damage to the rats (bodyweight column),[1]; [10],severe damage to the rats
same,effect on cancer,[1]; [10],effective in arresting the cancer
O=[Se](O)O [sodium selenite],"tumorigenesis, high fat fed animals",[6]; high fat fed rats,did not respond as favorably
same,"tumorigenesis, low fat diets",[6]; rats on low fat diets,decrease tumorigenesis
same,growth of human prostate carcinoma cells,[7],inhibits the growth
same,concentration that can inhibit EF-2,EF-2,11 µM
same,development of cancerous tumors,[8],completely inhibits
